Reference: US7205387B2, “Recombinant polypeptide useful for neurotrophin receptor mediated gene delivery and as neurotrophin agonist” (Agency for Science, Technology and Research, priority 2003, dated 2007)
Bridge positions count the residues as written; N and C are the ends. Ends that are not written are not given here.

Experiments:
Erk1 and Erk2 = assay: Phospho-Erk1/Erk2 (p44/p42 MAPK) immunoblot in PC12 cells; type: cell-based, rat; details: for effect of TrkA inhibitor pre-treatment on NL4- and NL4-10K-induced phosphorylation of Erk1 and Erk2: 100 nM K-252a or 10 μM AG879, 10 min pre-incubation
Description: (§1) Immunoblotting experiments were conducted to test whether the chimeric polypeptides could, like NGF, induce autophosphorylation of TrkA and activation of its signal transduction pathways. PC12 cells were seeded in 6-well plates at a density of 2×10^6 cells/well and cultured in RPMI 1640 containing 0.5% FBS and 0.25% horse serum for 2 days. The low serum concentrations were necessary to reduce the basal levels of phosphorylation. The medium was refreshed two hours before beginning treatment. The cells were incubated with the polypeptides or NGF in serum-free medium for 15–20 min. The cells were then washed in PBS, lysed, and sonicated. The cell lysates were resolved by SDS-PAGE and transferred to a nitrocellulose membrane for immunoblotting. The primary antibodies used include Phospho-TrkA (Tyr490) antibody, Phospho-p44/p42 MAPK (Thr202/Tyr204) monoclonal antibody, and Phospho-Akt (Ser473) monoclonal antibody, all obtained from Cell Signaling Technology (Beverly, Mass., USA). Colorimetric detection was performed by standard techniques after using horse-radish peroxidase-conjugated secondary antibodies. In some experiments, TrkA tyrosine kinase inhibitors K-252a or AG879 (both from Calbiochem, La Jolla, Calif., USA) were used. In these cases, PC12 cells were incubated with 100 nM K-252a or 10 μM AG879 before addition of polypeptides or NGF.

[1] = system: PC12 (TrkA and p75^NTR positive) cells; assay: Gene delivery in vitro (pCAGluc luciferase reporter), PC12 cells; type: cell-based, rat; details: for dose-response of transfection efficiency with increasing amount of peptide: 1 μg pCAGluc/well, 100 μM chloroquine
Description: A PC12 (rat pheochromocytoma) cell line was obtained from ATCC (American Type Culture Collection, Manassas, Va., USA) and cultured in RPMI-1640 medium supplemented with 10% fetal bovine serum (FBS) and 5% horse serum. PC12 cells are known to express TrkA and p75^NTR receptors. A COS7 (African green monkey kidney fibroblast) cell line was obtained from ATCC and cultured in Dulbecco's modified Eagle's medium (DMEM) supplemented with 10% fetal bovine serum, 50 U/ml penicillin, and 50 μg/ml streptomycin. The cells were maintained in a 37° C., 5% CO2, humidified incubator.
To determine the transfection efficiencies of our nucleic acid delivery systems, we employ a reporter plasmid, pCAGluc (a gift from Yoshiharu Matsuura, National Institute of Infectious Diseases, Tokyo, Japan), encoding firefly luciferase under the control of the composite promoter, CAG. CAG comprises the chicken β-actin promoter and the cytomegalovirus immediate early enhancer.
TrkA-targeting gene delivery complexes were tested for transfection efficiency in vitro in PC12 (TrkA and p75^NTR positive) cells and COS7 (neurotrophin receptor negative) cells. The cells were grown to 50–70% confluency in microplate wells (24-, 48-, or 96-well plates). The gene delivery complexes were prepared according to specifications presented for each example. Transfection was accomplished by replacing the serum-enriched medium with half the usual volume of reduced-serum medium, Opti-MEM (Invitrogen), containing the gene delivery complexes. Where specifically mentioned, 100 μM of chloroquine was also added to help the complexes escape from endosomes. After four hours of incubation, the cells were restored to the normal medium volume and serum concentration, either by topping up with medium containing twice the usual serum concentration (RPMI-1640 with 20% FBS and 10% horse serum for PC12) or by completely replacing the medium.
One to two days after transfection, the cell culture medium was removed and the cells were rinsed in phosphate-buffered saline (PBS). Enough Reporter Lysis Buffer (Promega, Wisconsin, Md., USA) to cover the bottom surface was added to each well (50 μl/well for 48-well plates). After one freeze-thaw cycle, the lysates were tested for luciferase activity using the Luciferase Assay System (Promega) and a single-tube luminometer (Berthold Lumat L B 9507, Bad Wildbad, Germany). The total protein concentration of each lysate was determined using the DC Protein assay (Bio-Rad, Hercules, Calif., USA). The results were expressed in relative light units (RLU) per milligram of total protein.

Akt = assay: Phospho-Akt immunoblot in PC12 cells; type: cell-based, rat; details: 5 μM peptide, 20 min
Description: as §1

plasmid DNA [2] = assay: DNA retardation assay (agarose gel electrophoresis); type: binding
Description: This assay qualitatively assesses the ability of a polypeptide or polycation to bind to DNA and thus to retard its migration (by decreasing its charge/mass ratio) through an agarose gel under electrophoresis. For a range of N/P ratios, polypeptide was added to 0.1 μg of plasmid DNA made up to 20 μl with either HEPES-buffered saline (HBS, 150 mM NaCl, 29 mM HEPES, pH 7.3) or 5% glucose. The mixtures were vortexed and incubated at room temperature for 30 minutes before being subjected to electrophoresis in a 0.8–1.0% Tris-borate-EDTA agarose gel stained with ethidium bromide for visualization under ultraviolet light.

TrkA = molecular target: T1, TrkA (Rattus norvegicus, UniProt P35739); assay: Phospho-TrkA immunoblot in PC12 cells; type: cell-based; details: 5 μM peptide, 20 min
T1 construct: endogenous in cells; host or cells: PC12 (rat pheochromocytoma, ATCC)
T1 sequence (P35739 33-799): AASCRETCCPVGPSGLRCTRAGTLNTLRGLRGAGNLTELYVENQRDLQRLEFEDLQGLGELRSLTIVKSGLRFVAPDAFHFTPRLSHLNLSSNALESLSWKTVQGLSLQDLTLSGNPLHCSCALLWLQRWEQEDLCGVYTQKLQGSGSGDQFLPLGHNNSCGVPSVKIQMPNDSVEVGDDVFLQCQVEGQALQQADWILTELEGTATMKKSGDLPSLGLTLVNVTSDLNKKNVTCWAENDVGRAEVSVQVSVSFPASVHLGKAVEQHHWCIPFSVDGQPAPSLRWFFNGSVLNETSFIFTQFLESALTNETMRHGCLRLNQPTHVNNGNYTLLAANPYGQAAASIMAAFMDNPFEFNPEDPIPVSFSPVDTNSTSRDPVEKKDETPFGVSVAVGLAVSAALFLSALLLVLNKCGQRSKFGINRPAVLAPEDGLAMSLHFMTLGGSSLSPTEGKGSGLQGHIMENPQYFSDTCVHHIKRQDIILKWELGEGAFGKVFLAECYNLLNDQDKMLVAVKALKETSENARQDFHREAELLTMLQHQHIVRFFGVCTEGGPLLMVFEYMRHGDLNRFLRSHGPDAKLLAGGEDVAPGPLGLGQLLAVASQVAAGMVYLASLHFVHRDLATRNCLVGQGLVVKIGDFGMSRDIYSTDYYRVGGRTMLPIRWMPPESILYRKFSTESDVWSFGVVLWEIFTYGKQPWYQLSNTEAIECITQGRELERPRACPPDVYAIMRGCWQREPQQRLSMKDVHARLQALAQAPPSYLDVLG
Description: as §1

PC12 cells = assay: PC12 cell survival assay (MTT, serum-free medium); type: cell-based, rat; details: differentiated PC12, serum and NGF deprived 4 days; 0.125 to 2.5 μM; NGF 10 ng/ml control
Description: Undifferentiated or differentiated (by 6-day treatment with 10 ng/ml NGF) PC12 cells seeded onto collagen-coated 96-well plates were exposed to serum-free RPMI-1640 medium containing either NGF or various concentrations of chimeric polypeptides. After 3–4 days of incubation, cell viability was measured by the standard MTT assay. Cell survival was expressed as a percentage of the viability of the NGF-treated control.

primary cortical neurons = assay: Gene delivery to primary cultures of cortical neurons; type: cell-based, rat
Description: Primary cultures of neurons were established from the cortices of embryonic Wistar rats at gestational day 20. Cortices freed of meninges were dissected and individual cells were dispersed mechanically by trituration of minced tissue in 3 ml DMEM medium supplemented with 2% FBS. The suspension was allowed to settle in a centrifuge tube. The cells in the supernatant were collected by centrifugation and resuspended gently in DMEM with 10% FBS. Viability of the cells was assessed prior to plating using trypan blue. Cells were plated onto microplates pre-coated with poly-L-lysine/laminin at a density of 7.5×10^5 viable cells/cm^2. After a two-hour incubation period to allow neurons to attach, the medium and unattached cells were removed and replaced by serum-free DMEM/F12 medium with 1% N2 supplement (Invitrogen, Carlsbad, Calif., USA). The cell were then incubated at 37° C. in 5% CO2 in a humidified incubator. After 2–5 days of culture, the neuron cells were used for transfection experiments. Gene delivery complexes were also tested on primary cultures of cortical neurons and glial cells in a similar fashion. […] Four hours later, an equal volume of DMEM-F12/N2 was added. One to two days after transfection, the cell culture medium was removed and the cells were rinsed in phosphate-buffered saline (PBS). Enough Reporter Lysis Buffer (Promega, Wisconsin, Md., USA) to cover the bottom surface was added to each well (50 μl/well for 48-well plates). After one freeze-thaw cycle, the lysates were tested for luciferase activity using the Luciferase Assay System (Promega) and a single-tube luminometer (Berthold Lumat L B 9507, Bad Wildbad, Germany). The total protein concentration of each lysate was determined using the DC Protein assay (Bio-Rad, Hercules, Calif., USA). The results were expressed in relative light units (RLU) per milligram of total protein.

primary glial cells = assay: Gene delivery to primary cultures of glial cells; type: cell-based, rat
Description: Primary cultures of glial cells were established from the cortices of 20-day old embryonic Wistar rats. Individual cells were collected as described above. The cells were plated at a density of 4×10^5 viable cells/cm^2 on poly-L-lysine/laminin coated dishes and grown to confluence for 7 days in DMEM/F12 medium supplemented with 10% FCS. The day before transfection, the cells were detached and plated into coated microplates at a density of 2.5×10^4 cells per well. Gene delivery complexes were also tested on primary cultures of cortical neurons and glial cells in a similar fashion. […] Four hours later, an equal volume of DMEM-F12/N2 was added. One to two days after transfection, the cell culture medium was removed and the cells were rinsed in phosphate-buffered saline (PBS). Enough Reporter Lysis Buffer (Promega, Wisconsin, Md., USA) to cover the bottom surface was added to each well (50 μl/well for 48-well plates). After one freeze-thaw cycle, the lysates were tested for luciferase activity using the Luciferase Assay System (Promega) and a single-tube luminometer (Berthold Lumat L B 9507, Bad Wildbad, Germany). The total protein concentration of each lysate was determined using the DC Protein assay (Bio-Rad, Hercules, Calif., USA). The results were expressed in relative light units (RLU) per milligram of total protein.

plasmid DNA [3] = assay: Atomic force microscopy of polypeptide-DNA complexes; type: physicochemical; details: N/P ratio of 10
Description: DNA samples, polypeptide-DNA complexes, and polypeptide-polycation-DNA complexes were prepared with a DNA concentration of 0.02 mg/ml. The samples were diluted ten-fold in HPLC-grade water, and 20 μl of each sample was deposited onto mica discs. After one minute, the mica discs were washed with HPLC-grade water and dried in a stream of filtered air. Images were acquired on a Nanoscope IIIa atomic force microscope (Digital Instruments, Santa Barbara, Calif., USA) operating in tapping mode in air, using Nanoprobe Silicon tips (Digital Instruments).

[4] = 0.25 μg/well pCAGluc, PEI600-based complexes
[5] = pCAGluc/SPKR4BL1-2 without PEI600, 0.25 μg/well

CC(C)(C)c1cc(/C=C(\C#N)C(N)=S)cc(C(C)(C)C)c1O [AG879, reference compound]
effect of TrkA inhibitor pre-treatment on NL4- and NL4-10K-induced phosphorylation of Erk1 and Erk2 (Erk1 and Erk2): greatly reduced

COC(=O)[C@@]1(O)C[C@H]2O[C@]1(C)n1c3ccccc3c3c4c(c5c6ccccc6n2c5c31)C(=O)NC4 [K-252a, reference compound]
effect of K-252a on Erk phosphorylation induced by 8 μM SPKR4NL1-2 (Erk1 and Erk2; 0, 10, 20, 50 and 100 nM K-252a, 10 min pre-incubation): reduced and eventually eliminated
effect of TrkA inhibitor pre-treatment on NL4- and NL4-10K-induced phosphorylation of Erk1 and Erk2 (Erk1 and Erk2): greatly reduced

KKKKKKKKKK (artificial sequence lysine 10) [10K, ten consecutive lysine residues, reference compound]
dose-response of transfection efficiency with increasing amount of peptide [1]: Neither NL4 (targeting domain only) nor 10K (DNA-binding domain only) nor a mixture of the two exhibited this dose-responsive trend
reduction of efficiency of NL4-10K/pCAGluc gene delivery by excess free competitor ([1]; competitor present during transfection, complexes at N/P ratio of 5, 100 μM chloroquine): did not have a significant effect

NGF: nerve growth factor, neurotrophin; competitor and positive control
effect of added NGF on transfection by (SPKR)4/DNA/PEI600 ([1]; NGF 200 ng/ml): no significant effect
effect of added NGF on transfection by SPKR4NL1-2/DNA/PEI600 ([1]; NGF 200 ng/ml during transfection): greatly reduces the transfection efficiency

NL4: loop 4 of NGF and the flanking β-sheet sequences, amino acids 80–108; targeting domain only (CTTTHTFVKALTMDGKQAAWRFIRIDTAC; disulfide 1-29)
activation (phosphorylation) of Erk 1 and Erk 2 (Erk1 and Erk2; 5 μM peptide, 20 min): induced activation
activation (phosphorylation) of Akt (Akt): induced activation
DNA binding / retardation of DNA migration (in words) (plasmid DNA [2]): does not retard DNA migration
activation (phosphorylation) of TrkA (TrkA): induced activation
dose-response of transfection efficiency with increasing amount of peptide [1]: Neither NL4 (targeting domain only) nor 10K (DNA-binding domain only) nor a mixture of the two exhibited this dose-responsive trend
cell survival rate as % of optimal NGF-promoted survival (PC12 cells): 68–109%

SPKRSPKRSPKRSPKR (artificial sequence SPKR4) [(SPKR)4, reference compound]
transgene expression (in words) (primary cortical neurons; [4]): enhances transgene expression
transgene expression (in words) (primary glial cells; [4]): enhances transgene expression

B1: SPKR4BL1-2: chimeric protein analogous to SPKR4NL1-2 with loops 1 and 2 of BDNF (aa 22–74) to bind TrkB (protein)
chain: MGHHHHHHHHHHSSGHIEGRHMSPKRSPKRSPKRSPKRGGTYLSEDELKAAEAAFKRHNPTGSCSISEWVTAADKKTAVDMSGGTVTVLEKVPVSKGQLKQYFYETKCNPMGYTKEG
modifications: SPKR4BL1-2
increase of transgene expression with increasing SPKR4BL1-2 (primary cortical neurons; PEI600 fixed at N/P ratio of 10, 0.25 μg/well pCAGluc, highest ratio used): up to 500 fold
transgene expression relative to PEI600/DNA (primary glial cells; [5]): 50 times
transgene expression relative to naked DNA (primary glial cells; [5]): 180 times
N/P ratio at which plasmid DNA is completely retarded (complex immobile) (plasmid DNA [2]; 0.1 μg plasmid DNA, agarose gel): 2 N/P ratio
peptide/DNA amount equivalent to the N/P ratio of complete retardation (plasmid DNA [2]; N/P ratio of 2): 0.8 nmol/ug DNA
diameter of condensed plasmid DNA particles (plasmid DNA [3]): under 200 nm
